Test results taken from patent US6914045B2, “Glycopeptide antibiotics” (Wyeth Holdings Corporation, priority 2001, dated 2005).
In brackets after ≈: the same amount, converted by molar mass.

Key:
Assay in all cases: in vitro antibacterial evaluation, MIC by broth dilution
Assay type in all cases: cell-based
Escherichia coli = details: 18 hours at 35° C.
Enterococcus sp. = details: broth dilution, 18 hours at 35° C.
Outline: (§1)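 MIC = lowest antibiotic concentration preventing visible growth; inoculum 5×10^5 CFU/mL; drug range 64-0.06 μg/mL; Muller-Hinton II […]; NCCLS M7-A2 guidance.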

Staphylococcus sp. = details: broth dilution, 18 hours at 35° C.
Outline: as §1

Streptococcus sp. = details: broth dilution, 18 hours at 35° C.
Outline: as §1

Compound: CC(c1ccccc1)C1NC(=O)CNC(=O)C(CO)NC(=O)C(CC2CNC(=N)N2C2OC(CO)C(O)C(O)C2O)NC(=O)C(CC2CNC(=N)N2)NC(=O)C(Cc2ccc(OC3OC(CO)C(OC4OC(CO)C(O)C(OCc5ccc(OCc6ccccc6)cc5)C4O)C(O)C3O)cc2)NC1=O (stereo not shown) [Example 246b]
- MIC Escherichia coli (ATCC 25922) (Escherichia coli): >128 µg/mL
- MIC Escherichia coli (GC 4559) (Escherichia coli): >128 µg/mL
- MIC Escherichia coli (GC 4560) (Escherichia coli): 32 µg/mL (≈ 21.9 µM)
- MIC Enterococcus avium (GC 4558) (Enterococcus sp.): 64 µg/mL (≈ 43.8 µM)
- MIC Enterococcus faecalis (ATCC 29212) (Enterococcus sp.): 128 µg/mL (≈ 87.7 µM)
- MIC Enterococcus faecalis (GC 2242) (Enterococcus sp.): 128 µg/mL (≈ 87.7 µM)
- MIC Enterococcus faecalis (GC 2691) (Enterococcus sp.): 128 µg/mL (≈ 87.7 µM)
- MIC Enterococcus faecalis (GC 3059) (Enterococcus sp.): 128 µg/mL (≈ 87.7 µM)
- MIC Enterococcus faecalis (GC 4552) (Enterococcus sp.): 128 µg/mL (≈ 87.7 µM)
- MIC Enterococcus faecalis (GC 4553) (Enterococcus sp.): 128 µg/mL (≈ 87.7 µM)
- MIC Enterococcus faecalis (GC 4554) (Enterococcus sp.): >128 µg/mL
- MIC Enterococcus faecalis (GC 6189) (Enterococcus sp.): 128 µg/mL (≈ 87.7 µM)
- MIC Enterococcus faecium (GC 2243) (Enterococcus sp.): 128 µg/mL (≈ 87.7 µM)
- MIC Enterococcus faecium (GC 4556) (Enterococcus sp.): 128 µg/mL (≈ 87.7 µM)
- MIC Enterococcus faecium (GC 4557) (Enterococcus sp.): 32 µg/mL (≈ 21.9 µM)
- MIC Enterococcus faecalis (ATCC 29212) (Enterococcus sp.; strain ATCC 29212): 128 µg/mL (≈ 87.7 µM)
- MIC Enterococcus faecalis (GC 2242) (Enterococcus sp.; strain GC 2242): 128 µg/mL (≈ 87.7 µM)
- MIC Enterococcus faecium (GC 2243) (Enterococcus sp.; strain GC 2243): 128 µg/mL (≈ 87.7 µM)
- MIC Enterococcus faecalis (GC 2691) (Enterococcus sp.; strain GC 2691): 128 µg/mL (≈ 87.7 µM)
- MIC Enterococcus faecalis (GC 3059) (Enterococcus sp.; strain GC 3059): 128 µg/mL (≈ 87.7 µM)
- MIC Enterococcus faecalis (GC 4552) (Enterococcus sp.; strain GC 4552): 128 µg/mL (≈ 87.7 µM)
- MIC Enterococcus faecalis (GC 4553) (Enterococcus sp.; strain GC 4553): 128 µg/mL (≈ 87.7 µM)
- MIC Enterococcus faecalis (GC 4554) (Enterococcus sp.; strain GC 4554): >128 µg/mL
- MIC Enterococcus faecium (GC 4556) (Enterococcus sp.; strain GC 4556): 128 µg/mL (≈ 87.7 µM)
- MIC Enterococcus faecium (GC 4557) (Enterococcus sp.; strain GC 4557): 32 µg/mL (≈ 21.9 µM)
- MIC Enterococcus avium (GC 4558) (Enterococcus sp.; strain GC 4558): 64 µg/mL (≈ 43.8 µM)
- MIC Enterococcus faecalis (GC 6189) (Enterococcus sp.; strain GC 6189): 128 µg/mL (≈ 87.7 µM)
- MIC Coagulase Negative Staphylococcus (GC 4547) (Staphylococcus sp.): 64 µg/mL (≈ 43.8 µM)
- MIC Coagulase Negative Staphylococcus (GC 4548) (Staphylococcus sp.): 64 µg/mL (≈ 43.8 µM)
- MIC Coagulase Negative Staphylococcus (GC 4549) (Staphylococcus sp.): 32 µg/mL (≈ 21.9 µM)
- MIC Coagulase Negative Staphylococcus (GC 4551) (Staphylococcus sp.): 64 µg/mL (≈ 43.8 µM)
- MIC Coagulase Negative Staphylococcus (GC 6257) (Staphylococcus sp.): 64 µg/mL (≈ 43.8 µM)
- MIC Staphylococcus aureus (ATCC 29213) (Staphylococcus sp.): 64 µg/mL (≈ 43.8 µM)
- MIC Staphylococcus aureus (GC 1131) (Staphylococcus sp.): 128 µg/mL (≈ 87.7 µM)
- MIC Staphylococcus aureus (GC 3051) (Staphylococcus sp.): 64 µg/mL (≈ 43.8 µM)
- MIC Staphylococcus aureus (GC 3053) (Staphylococcus sp.): 128 µg/mL (≈ 87.7 µM)
- MIC Staphylococcus aureus (GC 4541) (Staphylococcus sp.): 64 µg/mL (≈ 43.8 µM)
- MIC Staphylococcus aureus (GC 4542) (Staphylococcus sp.): 64 µg/mL (≈ 43.8 µM)
- MIC Staphylococcus aureus (GC 4544) (Staphylococcus sp.): 64 µg/mL (≈ 43.8 µM)
- MIC Staphylococcus aureus (GC 4545) (Staphylococcus sp.): 64 µg/mL (≈ 43.8 µM)
- MIC Staphylococcus aureus-SMITH (GC 4543) (Staphylococcus sp.): 64 µg/mL (≈ 43.8 µM)
- MIC Staphylococcus haemolyticus (GC 4546) (Staphylococcus sp.): 128 µg/mL (≈ 87.7 µM)
- MIC Staphylococcus aureus (ATCC 29213) (Staphylococcus sp.; strain ATCC 29213): 64 µg/mL (≈ 43.8 µM)
- MIC Staphylococcus aureus (GC 1131) (Staphylococcus sp.; strain GC 1131): 128 µg/mL (≈ 87.7 µM)
- MIC Staphylococcus aureus (GC 3051) (Staphylococcus sp.; strain GC 3051): 64 µg/mL (≈ 43.8 µM)
- MIC Staphylococcus aureus (GC 3053) (Staphylococcus sp.; strain GC 3053): 128 µg/mL (≈ 87.7 µM)
- MIC Staphylococcus aureus (GC 4541) (Staphylococcus sp.; strain GC 4541): 64 µg/mL (≈ 43.8 µM)
- MIC Staphylococcus aureus (GC 4542) (Staphylococcus sp.; strain GC 4542): 64 µg/mL (≈ 43.8 µM)
- MIC Staphylococcus aureus-SMITH (GC 4543) (Staphylococcus sp.; strain GC 4543): 64 µg/mL (≈ 43.8 µM)
- MIC Staphylococcus aureus (GC 4544) (Staphylococcus sp.; strain GC 4544): 64 µg/mL (≈ 43.8 µM)
- MIC Staphylococcus aureus (GC 4545) (Staphylococcus sp.; strain GC 4545): 64 µg/mL (≈ 43.8 µM)
- MIC Staphylococcus haemolyticus (GC 4546) (Staphylococcus sp.; strain GC 4546): 128 µg/mL (≈ 87.7 µM)
- MIC Coagulase Negative Staphylococcus (GC 4547) (Staphylococcus sp.; strain GC 4547): 64 µg/mL (≈ 43.8 µM)
- MIC Coagulase Negative Staphylococcus (GC 4548) (Staphylococcus sp.; strain GC 4548): 64 µg/mL (≈ 43.8 µM)
- MIC Coagulase Negative Staphylococcus (GC 4549) (Staphylococcus sp.; strain GC 4549): 32 µg/mL (≈ 21.9 µM)
- MIC Coagulase Negative Staphylococcus (GC 4551) (Staphylococcus sp.; strain GC 4551): 64 µg/mL (≈ 43.8 µM)
- MIC Coagulase Negative Staphylococcus (GC 6257) (Staphylococcus sp.; strain GC 6257): 64 µg/mL (≈ 43.8 µM)
- MIC Streptococcus agalactiae (GC 4564) (Streptococcus sp.): 64 µg/mL (≈ 43.8 µM)
- MIC Streptococcus pneumoniae (ATCC 6301) (Streptococcus sp.): 32 µg/mL (≈ 21.9 µM)
- MIC Streptococcus pneumoniae (GC 1894) (Streptococcus sp.): 32 µg/mL (≈ 21.9 µM)
- MIC Streptococcus pneumoniae (GC 4565) (Streptococcus sp.): 64 µg/mL (≈ 43.8 µM)
- MIC Streptococcus pyogenes (GC 4563) (Streptococcus sp.): 64 µg/mL (≈ 43.8 µM)
- MIC Streptococcus pneumoniae (ATCC 6301) (Streptococcus sp.; strain ATCC 6301): 32 µg/mL (≈ 21.9 µM)
- MIC Streptococcus pneumoniae (GC 1894) (Streptococcus sp.; strain GC 1894): 32 µg/mL (≈ 21.9 µM)
- MIC Streptococcus pyogenes (GC 4563) (Streptococcus sp.; strain GC 4563): 64 µg/mL (≈ 43.8 µM)
- MIC Streptococcus agalactiae (GC 4564) (Streptococcus sp.; strain GC 4564): 64 µg/mL (≈ 43.8 µM)
- MIC Streptococcus pneumoniae (GC 4565) (Streptococcus sp.; strain GC 4565): 64 µg/mL (≈ 43.8 µM)
